Assay results reported in article PMC4984800, “A first in man, dose-finding study of the mTORC1/mTORC2 inhibitor OSI-027 in patients with advanced solid malignancies” (British Journal of Cancer, 2016).
“Also recorded” adds a separate entry of the source.

How the values were obtained:
[1] = First-in-human trial: dose-limiting toxicities, adverse events, tolerability; type: in vivo
Description: Three different schedules of administration were investigated during the dose-escalation phase: once daily for three consecutive days every week (Schedule 1 (S1)), once weekly (Schedule 2 (S2)) and continuous once daily (Schedule 3 (S3)). The primary objective of the study was to determine MTD and recommend a dose and schedule of OSI-027 for phase 2 trials. Secondary objectives included tolerability, safety and pharmacokinetics profile, assessment of pharmacodynamics and preliminary antitumour activity.
Dose escalation was pursued independently for each schedule following a 3+3 design. Escalation was permitted if <33% patients on a dose level experienced dose-limiting toxicities (DLT), defined as any non-haematological adverse event grade ⩾3 (NCI-CTCAE v3) related with the study drug occurring during the first cycle of treatment (21 days), with the exception of […] fatigue, nausea, vomiting and/or diarrhoea. In addition, absolute reduction ⩾15% on LVEF was also considered DLT. MTD was defined as the immediately lower dose level to the one where ⩾33% of patients experienced DLT.
Adverse events and concomitant medications were recorded throughout the trial participation.
Guidelines for dose modifications were implemented; drug administration was halted and/or dose was reduced for creatinine increase grade ⩾2 and/or if absolute values of LVEF fell ⩾15% from baseline. Permanent treatment discontinuation was mandated for LVEF drops ⩾20%.

[2] = tested on: p4EBP1 (Thr37/46) in PBMC; experiment: Pharmacodynamics in PBMC: p4EBP1 (Thr37/46), mTORC1 effector; type: in vivo, human
Method: (§1) Drug-mediated inhibition of the mTORC1 and mTORC2 signalling was evaluated through assessing modulation of phospho-4EBP1 and phospho-PRAS40 in PBMC, as well as phospho-4EBP1 and phospho-S6 in tumour biopsies. Blood aliquots were collected prior to start dosing and at prespecified time points during the first course of treatment. Fresh tumour biopsies were obtained from selected patients during the dose escalation stage and from all patients in the expansion cohorts, at baseline and during cycle 1.
(§2) Drug-mediated inhibition of mTORC1 and mTORC2 signalling by OSI-027 was assessed by measuring inhibition of their effectors p4EBP1 (Thr37/46) and pPRAS40 (Thr246), respectively, in PBMC. In addition, paired tumour biopsies at screening and during first month of therapy were used to study target modulation.

pPRAS40 (Thr246) in PBMC = experiment: Pharmacodynamics in PBMC: pPRAS40 (Thr246), mTORC2 effector; type: in vivo, human
Method: as §1, §2

[3] = tested on: p4EBP1 in tumour biopsies; experiment: Paired tumour biopsies: p4EBP1 immunohistochemistry; type: in vivo, human
Method: as §1, §2
(§3) In 21 cases, pre- and postdose paired tumour biopsies were amenable for PD studies.

pS6 in tumour biopsies = experiment: Paired tumour biopsies: pS6 immunohistochemistry; type: in vivo, human
Method: as §1, §2, §3

advanced solid tumours = experiment: Preliminary antitumour activity (RECIST); type: in vivo, human
Method: Assessments by imaging techniques (CT and/or MRI) were performed every 8–12 weeks or earlier if clinically indicated. Descriptive statistics were used to summarise the safety data, including all patients who received at least one dose of OSI-027. All patients who completed the pharmacokinetic sampling were included in the PK analyses, which used descriptive statistics to summarise AUC0–∞, AUC0–t, Cmax, Clast, Tmax, Tlast, %AUC extrapolated, T1/2, clearance (Cl/F) and volume of distribution (Vz/F). Exploratory analysis were planned to correlate pharmacodynamics and pharmacokinetics. Response to treatment was evaluated according to Response Evaluation Criteria in Solid Tumors (RECIST) ([Therasse et al, 2000]).

mTORC2 = tested on: mTORC2; set-up: method as in Bhagwat et al, 2011; Falcon et al, 2011; settings: ref Bhagwat et al, 2011, Falcon et al; cited from earlier work
tumour cell lines = tested on: tumour cell lines; set-up: method as in Bhagwat et al, 2011; Falcon et al, 2011; settings: including models resistant to rapalogues, ref Bhagwat et al, 2011, Falcon et al, read-out: IC50 values in a broad panel of tumour cell lines; cited from earlier work
tumour xenograft models = tested on: tumour xenograft models; set-up: method as in Bhagwat et al, 2011; Falcon et al, 2011; settings: ref Bhagwat et al, 2011, Falcon et al; cited from earlier work
[4] = rodents; preclinical; cited from earlier work
[5] = preclinical toxicology studies; cited from earlier work
[6] = 4 h after dosing, doses over 30 mg, almost universal
[7] = S1, 90 mg, during the 3 days on treatment
[8] = S1, 160 mg, during the 4-days off treatment, most patients
[9] = metastatic colorectal cancer, S3–10 mg

Compound: COc1cccc2cc(-c3nc([C@H]4CC[C@H](C(=O)O)CC4)n4ncnc(N)c34)[nH]c12 [OSI-027]
- highest potentially feasible dose ([1]; S1, QD three consecutive days per week): 120 mg
- MTD ([1]; S2, once weekly, 10 to 240 mg QWK tested): Dose escalation was discontinued before a formal MTD was reached
- MTD ([1]; S3, continuous once daily): 30 mg QD
- Maximum creatinine on treatment CTCAE grade 4, patients ([1]; human, in vivo): 0
- creatinine rise (increase of at least one grade in CTCAE v3), patients ([1]; human, in vivo): 26%
- cutaneous toxicities, mainly grade 1–2 macular or maculo-papular rash, patients ([1]; human, in vivo): 25%
- patients who discontinued drug permanently due to drug-related adverse events ([1]; human, in vivo): 8.1%
- patients with a grade ⩾3 drug-related event ([1]; human, in vivo): 17%
- patients with a drop in the LVEF ([1]; human, in vivo, 3 weeks): 38%
- Dose limiting toxicity ([1]; human, in vivo, 12 days): Elevated serum creatinine (G2)
- Dose limiting toxicity ([1]; human, in vivo, 13 days): Fatigue (G3)
- Dose limiting toxicity ([1]; human, in vivo, 14 days): Bone pain (G3)
- Dose limiting toxicity ([1]; human, in vivo, 15 days): Stress-induced cardiomyopathy (G3)
- DLT grade 2 decreased LVEF ([1]; human, in vivo, 21 days): 1 events
- DLT grade 3 bone pain ([1]; human, in vivo, 21 days): 1 events
- DLT grade 3 cardiomyopathy ([1]; human, in vivo, 21 days): 1 events
- DLT grade 3 fatigue ([1]; human, in vivo, 21 days): 4 events
- DLT grade 3 hyperglycaemia ([1]; human, in vivo, 21 days): 1 events
- DLT grade 3 maculo-papular rash ([1]; human, in vivo, 21 days): 1 events
- DLT grade ⩾2 creatinine rise ([1]; human, in vivo, 21 days): 2 events
- Dose limiting toxicity ([1]; human, in vivo, 21 days): Urticaria (G3)
- patients with dose-limiting toxicities (DLT) ([1]; human, in vivo, 21 days): 11 patients
- Dose limiting toxicity ([1]; human, in vivo, 22 days): Decreased LVEF (G2)
- patients needing a dose reduction ([1]; in vivo): over half of the patients
- individuals who died during study participation ([1]; including post-treatment 30 days follow-up, none judged drug-related): eight
- inhibition of p4EBP1 in PBMC [2, 6]: Over 50%
- inhibition of p4EBP1 in PBMC [2, 7]: Over 50%
- target inhibition (p4EBP1) in PBMC [2, 8]: Over 50%
- inhibition of pPRAS40 in PBMC (pPRAS40 (Thr246) in PBMC; [6]): Over 50%
- inhibition of pPRAS40 in PBMC (pPRAS40 (Thr246) in PBMC; [7]): Over 50%
- target inhibition (pPRAS40) in PBMC (pPRAS40 (Thr246) in PBMC; [8]): Over 50%
- average reduction in p4EBP1 IHC staining ([3]; 90 mg—S1, paired tumour biopsies): 22.3%
- average reduction in p4EBP1 IHC staining ([3]; 120 mg—S1, paired tumour biopsies): 49.5%
- average reduction in p4EBP1 IHC staining ([3]; 240 mg—S2, paired tumour biopsies): 67.6%
- average reduction in pS6 expression (IHC) (pS6 in tumour biopsies; 90 mg): 28.6%
- average reduction in pS6 (IHC) (pS6 in tumour biopsies; 120 mg): 75.3%
- patients with stable disease at first follow-up radiological assessment (advanced solid tumours; 8–12 weeks): 29.7%
- RECIST responses (complete or partial) (advanced solid tumours; all patients): No RECIST responses were recorded; also recorded: No complete or partial responses were observed
- patients free of progression for ⩾24 weeks (advanced solid tumours; all patients): six
- patients with stable disease >6 months (advanced solid tumours; all patients): 5%
- reduction in the sum of target lesions diameters, single patient (advanced solid tumours; metastatic GIST, S1–120 mg): 20%
- time on therapy, single patient (advanced solid tumours; metastatic GIST, S1–120 mg): 45 weeks
- reduction in the size of the lesions, single patient (advanced solid tumours; [9]): 18%
- time on treatment, single patient (advanced solid tumours; [9]): 49 weeks
- time free of progression, single patient (advanced solid tumours; metastatic uveal melanoma, S3–35 mg): 48 weeks
- IC50 (mTORC2): 65 nM
- IC50 (tumour cell lines): < 10000 nM
- anti tumour activity in tumour xenograft models (tumour xenograft models): anti tumour activity was documented
- maximum tolerated dose (MTD) in toxicology studies [4]: 20 mg kg^−1 per day
- preclinical toxicology findings [5]: signs of immunosuppression, renal function impairment, glucose metabolism abnormalities as well as potential for cardiac and ocular toxicities at high doses
